Where two headings read alike, the source gives them in different places. Values belong to the compound of their own block, whether it stands above or below them.
What was measured:
VCaP cells = test: VCaP cell proliferation inhibition experiment (CellTiter-Glo); type: cell-based; conditions: Homo sapiens, 168 h
Procedure: After centrifugation and resuspension, viable cell counting was performed using a Vi-Cell XR cell counter. […] Then, 180 µl of the cell suspension was added per well to a 96-well cell culture plate at a cell density of 7,500 cells/well. At the time of seeding, T0 wells were also prepared. The following day, R1881 at a final concentration of 0.1 nM and compounds at various concentrations were added. The plate was placed back into the incubator and cultured for an additional 7 days. At the time of compound addition, the T0 plate was measured using the CellTiter-Glo (CTG) kit (Promega, Cat. No. G7572) and recorded as RLU0. Following incubation, 75 µl of pre-thawed and room temperature-equilibrated CellTiter-Glo solution was added to each well. […] The results were processed according to Equation (2). […] Growth% = (RLUcompound−RLU0)/(RLUcontrol−RLU0) × 100% [formula]

[1] = Pharmacokinetic test in rats; type: in vivo, SD rats; conditions: i.g. (5 mg/kg); for AUC(0-t): rat, po
Procedure: (§1) Experimental objective: In this experiment, a single dose of the test compound was administered to SD rats via intravenous administration and intragastric gavage, and the concentration of the test compound in plasma of the rats was measured to evaluate the pharmacokinetic profile of the test compound in the rats.
Experimental animals: Male SD rats, 200-220 g, 6 rats/compound, purchased from Chengdu Ddossy Experimental Animals Co., Ltd.
(§2) Experimental method: On the day of the experiment, 6 SD rats were randomly grouped according to their body weights. The animals were fasted with water available for 12 to 14 h one day before the administration, and were fed 4 h after the administration. Table 3 Administration information of pharmacokinetic test in rats
Sampling: Before and after the administration, 0.1 mL of blood was taken from the orbits under isoflurane anaesthesia, and placed in an EDTAK2 centrifuge tube. Centrifugation was carried out at 5000 rpm at 4°C for 10 min, and the plasma was collected.
The plasma collection time points for IV&PO groups were 0, 5 min, 15 min, 30 min, 1 h, 2 h, 4 h, 7 h, 24 h, and 48 h.
Before analysis and detection, all samples were stored at -60°C. The samples were analysed quantitatively by LC-MS/MS. Table 4 Pharmacokinetic parameters of compounds of the present invention in plasma of rats

[2] = Pharmacokinetic test in mice; type: in vivo, ICR mice; conditions: i.g. (5 mg/kg); for AUC(0-t): mouse, plasma, po
Procedure: as §1, with “ICR mice” for “SD rats”, “mice” for “rats”, “mice.” for “rats.”
Experimental animals: Male ICR mice, 6 mice/compound, purchased from Chengdu Ddossy Experimental Animals Co., Ltd.
as §2, with “[…]” for “rats”, “6” for “3”
Sampling: Before and after the administration, 0.15 mL of blood was taken from the orbits under isoflurane anaesthesia, and placed in an EDTAK2 centrifuge tube. Centrifugation was carried out at 5000 rpm at 4°C for 10 min, and the plasma was collected.
The plasma collection time points for PO groups were 0, 5 min, 15 min, 30 min, 1 h, 2 h, 4 h, 7 h, 24 h, and 48 h.
The plasma collection time points for IV groups were 0, 5 min, 15 min, 30 min, 1 h, 2 h, 4 h, 7 h, 24 h, and 48 h.
Before analysis and detection, all samples were stored at -60°C. The samples were analysed quantitatively by LC-MS/MS. Table 7 Pharmacokinetic parameters of compounds of the present invention in plasma of mice

hERG potassium channel = target: T1, hERG potassium channel (Homo sapiens, UniProt Q12809); test: hERG potassium ion channel test (manual patch-clamp, CHO cells); type: cell-based; conditions: inhibitory activity against hERG potassium channel current, CHO cells, whole cell patch-clamp, read-out: IC50
T1 construct: expressed in transfected cells; host or cells: CHO cells stably expressing hERG
From the text: Experimental platform: Electrophysiological manual patch-clamp system
Cell line: Chinese hamster ovary (CHO) cell lines stably expressing hERG potassium ion channel
Experimental method: In Chinese Hamster Ovary (CHO) cells stably expressing hERG potassium channel, whole cell patch-clamp technique was used to record hERG potassium channel current at room temperature. The glass microelectrode was made of a glass electrode blank (BF150-86-10, Sutter) by a puller. The tip resistance after filling the liquid in the electrode was about 2-5 MΩ. The glass microelectrode can be connected to the patch-clamp amplifier by inserting the glass microelectrode into an amplifier probe. The clamping voltage and data recording were controlled and recorded by the pClamp 10 software through a computer. The sampling frequency was 10 kHz, and the filtering frequency was 2 kHz. After the whole cell records were obtained, the cells were clamped at -80 mV, and the step voltage that induced the hERG potassium current (I hERG) was depolarised from -80 mV to +20 mV for 2 s, then repolarised to -50 mV, and returned to -80 mV after 1 s. This voltage stimulation was given every 10 s, and the administration process was started after the hERG potassium current was confirmed to be stable (at least 1 minute). The compound was administered for at least 1 minute at each test concentration, and at least 2 cells (n ≥ 2) were tested at each concentration.
Data processing: Data analysis processing was carried out by using pClamp 10, GraphPad Prism 5 and Excel software.
Compound IC50 was calculated using GraphPad Prism 5 software by fitting according to the following equation: Y = Bottom + (Top−Bottom)/(1+10^(∧)((LogIC50−X)*HillSlope)) [formula] where X represents the Log value of the tested concentration of the test sample, Y represents the inhibition percentage at the corresponding concentration, and Bottom and Top represent the minimum and maximum inhibition percentage, respectively.

AR protein = target: T2, AR protein (Homo sapiens, UniProt P10275); test: Detection of AR degradation in VCaP cells (automated western blot); type: cell-based; conditions: degradation of AR protein in VCaP cells, 24 hours incubation; read-out: DC50
T2 construct: VCap is a human prostate cancer cell line purchased from ATCC; host or cells: VCaP human prostate cancer cells
T2 sequence (P10275 1-920): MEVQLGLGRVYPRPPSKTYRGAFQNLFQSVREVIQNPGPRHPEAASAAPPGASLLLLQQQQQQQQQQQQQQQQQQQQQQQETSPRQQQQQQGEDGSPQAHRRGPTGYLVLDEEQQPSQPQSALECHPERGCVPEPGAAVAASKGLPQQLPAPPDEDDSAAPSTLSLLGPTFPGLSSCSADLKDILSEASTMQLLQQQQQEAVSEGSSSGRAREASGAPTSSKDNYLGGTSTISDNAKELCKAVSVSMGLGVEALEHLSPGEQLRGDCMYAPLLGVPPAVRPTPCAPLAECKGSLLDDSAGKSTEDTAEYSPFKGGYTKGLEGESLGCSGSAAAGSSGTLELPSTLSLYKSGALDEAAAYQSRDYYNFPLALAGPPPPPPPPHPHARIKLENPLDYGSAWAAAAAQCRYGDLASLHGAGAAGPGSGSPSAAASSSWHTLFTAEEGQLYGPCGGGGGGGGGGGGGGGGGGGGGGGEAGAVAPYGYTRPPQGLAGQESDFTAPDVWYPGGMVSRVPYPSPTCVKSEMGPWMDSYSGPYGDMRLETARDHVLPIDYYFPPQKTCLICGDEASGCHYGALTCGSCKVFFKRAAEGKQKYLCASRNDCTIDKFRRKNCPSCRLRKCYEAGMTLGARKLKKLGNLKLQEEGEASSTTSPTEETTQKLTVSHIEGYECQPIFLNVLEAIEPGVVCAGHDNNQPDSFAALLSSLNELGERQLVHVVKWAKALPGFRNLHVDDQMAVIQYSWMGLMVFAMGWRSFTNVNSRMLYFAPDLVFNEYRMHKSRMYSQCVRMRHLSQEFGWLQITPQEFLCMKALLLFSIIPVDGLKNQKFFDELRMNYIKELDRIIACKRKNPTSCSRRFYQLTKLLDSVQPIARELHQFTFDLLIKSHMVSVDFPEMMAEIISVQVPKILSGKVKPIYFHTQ
Procedure: VCap is a human prostate cancer cell line purchased from ATCC and cultured under the following conditions: DMEM + 10% FBS + 1% penicillin-streptomycin solution. The cells were cultured in a 37°C, 5% CO2 incubator. The cells were seeded in a 6-well plate, with 5 × 10^5 cells/well. After seeding, compounds at various concentrations were added, and the plate was incubated for 24 hours in the 37°C, 5% CO2 incubator. Following incubation, the cells were harvested and RIPA lysis buffer (beyotime, Cat. P0013B) was added. The cells were lysed on ice for 15 minutes and centrifuged at 12,000 rpm at 4°C for 10 minutes. The supernatant protein samples were collected and the protein was quantified using the BCA kit (Beyotime, Cat. P0009). Then the protein was diluted to 0.25 mg/mL. The expressions of AR (CST, Cat.5153S) and the internal reference β-actin (CST, Cat. 3700S) were detected using a fully automated western blot quantitative analyser (Proteinsimple). Using the "Compass for SW" software, the relative peak area of AR was calculated when the internal reference area was 10,000. The proportion of AR relative to the solvent control group at various drug concentrations was calculated according to Equation (1), where ARtreat represents the relative peak area of the compound-treated group, and ARsolvent represents the relative peak area of the solvent control group. The processed data obtained from Equation (1) were analysed using GraphPad Prism 8.3.0 software, and the DC50 value was calculated using a four-parameter nonlinear regression model. The degradation rate at a specified concentration was determined as 100-AR%. AR% = ARtreat/ ARsolvent × 100% [formula]

[3] = vehicle 5% DMSO+5% Solutol+90% (20% SBE-β-CD)
[4] = Vehicle 1: 5% DMSO+5% Solutol+30% PEG400+60% (20% SBE-CD)
[5] = Vehicle 3: 5% DMSO+5% Solutol+90% (20% SBE-β-CD)

T1 sequence (Q12809 whole entry): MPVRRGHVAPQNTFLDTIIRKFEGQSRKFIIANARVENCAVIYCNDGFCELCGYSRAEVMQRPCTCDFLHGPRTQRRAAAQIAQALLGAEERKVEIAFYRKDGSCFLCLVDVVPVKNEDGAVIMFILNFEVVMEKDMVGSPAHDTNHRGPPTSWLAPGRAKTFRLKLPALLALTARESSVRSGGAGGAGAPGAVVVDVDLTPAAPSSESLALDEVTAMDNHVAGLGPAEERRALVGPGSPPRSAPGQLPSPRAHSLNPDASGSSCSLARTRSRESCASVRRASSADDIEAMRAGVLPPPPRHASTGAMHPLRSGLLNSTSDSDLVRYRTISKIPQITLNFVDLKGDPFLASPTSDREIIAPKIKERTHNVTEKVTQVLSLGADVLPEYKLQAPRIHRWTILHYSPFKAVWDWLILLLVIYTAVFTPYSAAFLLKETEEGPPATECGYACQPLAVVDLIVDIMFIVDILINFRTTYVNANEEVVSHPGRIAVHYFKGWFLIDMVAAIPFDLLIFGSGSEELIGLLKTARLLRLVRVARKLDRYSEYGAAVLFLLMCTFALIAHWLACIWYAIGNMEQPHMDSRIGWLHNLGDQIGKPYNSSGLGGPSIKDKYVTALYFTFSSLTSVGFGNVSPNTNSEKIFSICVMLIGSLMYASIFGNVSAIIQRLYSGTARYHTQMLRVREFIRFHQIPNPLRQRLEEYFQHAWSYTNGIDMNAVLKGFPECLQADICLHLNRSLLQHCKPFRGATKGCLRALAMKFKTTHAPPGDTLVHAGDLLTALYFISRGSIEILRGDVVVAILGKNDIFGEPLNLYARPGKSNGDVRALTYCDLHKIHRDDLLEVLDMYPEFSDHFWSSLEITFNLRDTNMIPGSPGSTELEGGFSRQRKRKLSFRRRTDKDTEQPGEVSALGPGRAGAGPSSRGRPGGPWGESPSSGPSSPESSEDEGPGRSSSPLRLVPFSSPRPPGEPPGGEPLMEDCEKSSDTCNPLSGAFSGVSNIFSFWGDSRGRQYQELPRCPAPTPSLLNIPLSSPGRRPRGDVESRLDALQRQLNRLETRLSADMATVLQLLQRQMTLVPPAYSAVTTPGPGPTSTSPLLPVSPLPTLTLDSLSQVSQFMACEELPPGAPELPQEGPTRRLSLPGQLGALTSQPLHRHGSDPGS

GI50 (VCaP cells): > 2000 nM | F [1, 3]: 26.9±3.2% | AUC(0-t) ([1]; male, SD, plasma, vehicle 5% DMSO+5% Solutol+90% (20% SBE-β-CD)): 2870 ± 338 ng·h/mL | F [2, 4]: 63.4±3.3% | AUC(0-t) ([2]; male, ICR, Vehicle 1: 5% DMSO+5% Solutol+30% PEG400+60% (20% SBE-CD)): 20700 ± 1080 ng·h/mL
Structure (SMILES): COc1cc(O[C@H]2C(C)(C)[C@H](NC(=O)c3ccc(N4CCC(CN5CCN(c6ccc(C(=O)N[C@H]7CCC(=O)NC7=O)c(F)c6)CC5)CC4)cc3)C2(C)C)ccc1C#N [Control compound, reference compound]

Structure (SMILES): CC1(C)[C@H](NC(=O)c2ccc(N3CCC(CN4CCN5c6cc(F)c(C7CCC(=O)NC7=O)cc6CC[C@@H]5C4)CC3)cc2)C(C)(C)[C@H]1Oc1ccc(C#N)c2ncccc12 (some centres unmarked) [Compound 30]
IC50 (hERG potassium channel; chinese hamster): > 40000 nM | DC50 (AR protein): < 100 nM | AUC(0-t) [2, 5]: 33000 ± 9330 ng·h/mL

Structure (SMILES): COc1cc(O[C@H]2C(C)(C)[C@H](NC(=O)c3ccc(N4CCC(CN5CCN6c7cc(F)c(C8CCC(=O)NC8=O)cc7CC[C@H]6C5)CC4)cc3)C2(C)C)ccc1C#N (some centres unmarked) [Compound 1]
GI50 (VCaP cells): < 300 nM | F [1, 3]: 46.5±8.6% | AUC(0-t) ([1]; in vivo, vehicle 5% DMSO+5% Solutol+90% (20% SBE-β-CD)): 5490 ± 1010 ng·h/mL

Structure (SMILES): COc1cc(O[C@H]2C(C)(C)[C@H](NC(=O)c3ccc(N4CCC(CN5CCN6c7cc(F)c(C8CCC(=O)NC8=O)cc7CC[C@@H]6C5)CC4)cc3)C2(C)C)ccc1C#N (some centres unmarked) [Compound 2]
F ([1]; vehicle 5% DMSO+ 5% Solutol+30% PEG-400+60% (20% SBE-β-CD)): 61.4+9.1% | AUC(0-t) ([1]; in vivo, vehicle 5% DMSO+ 5% Solutol+30% PEG-400+60% (20% SBE-β-CD)): 6010 ± 889 ng·h/mL

Structure (SMILES): COc1cc(O[C@H]2C(C)(C)[C@H](NC(=O)c3ccc(N4CCC(CN5CCN6c7cc(F)c(C(=O)N[C@H]8CCC(=O)NC8=O)cc7CC[C@H]6C5)CC4)cc3)C2(C)C)ccc1C#N [Compound 13]
DC50 (AR protein): < 100 nM | AUC(0-t) [2, 4]: 33500 ± 1680 ng·h/mL

GI50 (VCaP cells): < 300 nM | AUC(0-t) ([1]; male, SD, plasma, vehicle 5% DMSO+5% Solutol+10% PEG400+80% (20% SBE-β-CD)): 6970 ng·h/mL | DC50 (AR protein): < 100 nM
Structure (SMILES): COc1cc(O[C@H]2C(C)(C)[C@H](NC(=O)c3ccc(N4CCC5(CC4)CC(N4CCN6c7cc(F)c(N8CCC(=O)NC8=O)cc7CC[C@@H]6C4)C5)cc3)C2(C)C)ccc1C#N [Compound 79]
IC50 (hERG potassium channel; human, CHO cells stably expressing hERG potassium channel): > 40000 nM

Structure (SMILES): CC1(C)[C@H](NC(=O)c2ccc(N3CCC(CN4CCN5c6cc(F)c(N7CCC(=O)NC7=O)cc6CC[C@@H]5C4)CC3)cc2)C(C)(C)[C@H]1Oc1ccc(C#N)c2ncccc12 [Compound 32]
DC50 (AR protein): < 100 nM | AUC(0-t) [2, 5]: 30900 ± 6080 ng·h/mL

Structure (SMILES): COc1cc(O[C@H]2C(C)(C)[C@H](NC(=O)c3ccc(N4CCC(CN5CCN6c7cc(F)c(N8CCC(=O)NC8=O)cc7CC[C@@H]6C5)CC4)nc3)C2(C)C)ccc1C#N [Trifluoroacetate of compound 66]
GI50 (VCaP cells): < 300 nM | AUC(0-t) [2, 5]: 30400 ± 9310 ng·h/mL
